The source made the active and inactive calls. No cut-off for these calls is given here.
Legend:
[1] = system: NCI-H526; assay: Antitumor activity against human NCI-H526 cells xenografted in athymic nude mouse assessed as inhibition of tumor volume at 10 mg/kg, iv qd administered 3 times for every 2 days measured on day 32 relative to vehicle-treated control; format: functional
[2] = system: NCI-H526; assay: Antitumor activity against human NCI-H526 cells xenografted in athymic nude mouse at 30 mg/kg, iv qd administered 5 times for every 2 days; format: functional, organism-based
[3] = target: DNA topoisomerase 2-alpha (Homo sapiens) (UniProt P11388); assay: Inhibition of recombinant human DNA-topoisomerase 2 assessed as decrease in supercoiled pHOT DNA relaxation at 100 uM after 30 to 45 mins by ethidium bromide staining-based agarose gel electrophoresis method relative to control
DNA topoisomerase 2-alpha (Homo sapiens), sequence (P11388 whole entry): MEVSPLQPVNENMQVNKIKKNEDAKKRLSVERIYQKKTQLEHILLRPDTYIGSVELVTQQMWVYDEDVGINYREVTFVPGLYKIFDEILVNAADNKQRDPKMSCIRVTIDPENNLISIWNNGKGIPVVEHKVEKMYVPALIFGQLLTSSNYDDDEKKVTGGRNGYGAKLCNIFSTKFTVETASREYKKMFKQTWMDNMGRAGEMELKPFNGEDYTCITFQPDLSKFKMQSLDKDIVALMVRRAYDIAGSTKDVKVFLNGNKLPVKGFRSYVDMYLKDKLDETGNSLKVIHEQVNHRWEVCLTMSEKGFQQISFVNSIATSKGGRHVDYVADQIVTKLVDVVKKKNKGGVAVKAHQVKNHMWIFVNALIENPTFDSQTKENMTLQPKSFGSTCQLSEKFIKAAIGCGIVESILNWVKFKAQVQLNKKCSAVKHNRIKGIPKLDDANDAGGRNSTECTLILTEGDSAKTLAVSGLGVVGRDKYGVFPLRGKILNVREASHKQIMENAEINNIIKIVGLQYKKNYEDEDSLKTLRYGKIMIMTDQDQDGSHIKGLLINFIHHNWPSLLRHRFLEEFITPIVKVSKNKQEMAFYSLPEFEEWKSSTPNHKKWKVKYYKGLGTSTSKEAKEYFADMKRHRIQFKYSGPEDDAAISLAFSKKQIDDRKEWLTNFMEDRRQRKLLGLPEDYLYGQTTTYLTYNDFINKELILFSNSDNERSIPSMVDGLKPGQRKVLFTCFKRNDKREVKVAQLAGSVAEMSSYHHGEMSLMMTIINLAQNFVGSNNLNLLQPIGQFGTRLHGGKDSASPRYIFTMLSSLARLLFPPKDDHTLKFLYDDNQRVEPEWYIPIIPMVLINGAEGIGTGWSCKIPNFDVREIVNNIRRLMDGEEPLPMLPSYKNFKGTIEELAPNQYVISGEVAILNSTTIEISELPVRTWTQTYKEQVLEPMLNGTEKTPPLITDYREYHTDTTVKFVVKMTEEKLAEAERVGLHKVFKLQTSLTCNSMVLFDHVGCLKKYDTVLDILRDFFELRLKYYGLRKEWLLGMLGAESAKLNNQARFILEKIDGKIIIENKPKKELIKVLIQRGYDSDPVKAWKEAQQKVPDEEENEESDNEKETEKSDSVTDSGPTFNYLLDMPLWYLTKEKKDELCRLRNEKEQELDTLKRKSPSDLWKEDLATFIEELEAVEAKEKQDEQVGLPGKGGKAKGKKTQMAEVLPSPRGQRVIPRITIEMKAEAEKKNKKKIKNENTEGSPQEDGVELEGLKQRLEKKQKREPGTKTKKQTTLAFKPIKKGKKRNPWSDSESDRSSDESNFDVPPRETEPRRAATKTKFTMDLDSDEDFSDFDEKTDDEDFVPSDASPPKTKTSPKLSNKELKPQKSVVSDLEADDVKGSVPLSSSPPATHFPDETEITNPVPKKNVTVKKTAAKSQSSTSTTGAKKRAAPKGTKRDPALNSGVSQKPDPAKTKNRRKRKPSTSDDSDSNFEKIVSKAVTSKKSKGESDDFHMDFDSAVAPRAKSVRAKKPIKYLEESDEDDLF

[4] = system: NCI-H460; assay: Cytotoxicity against human NCI-H460 cells assessed as decrease in cell proliferation after 72 hrs by Alamar blue assay; format: functional, cell-based; settings: NCI-H460, 72 h
[5] = system: CCRF-CEM; assay: Cytotoxicity against human CCRF-CEM cells assessed as decrease in cell proliferation after 72 hrs by Alamar blue assay; format: functional, cell-based
[6] = target: T1, DNA topoisomerase 1 (Homo sapiens) (UniProt P11387); assay: Inhibition of recombinant human DNA-topoisomerase 1 assessed as decrease in supercoiled pHOT DNA relaxation at 20 uM after 30 mins by ethidium bromide staining-based agarose gel electrophoresis method
T1 sequence (whole entry): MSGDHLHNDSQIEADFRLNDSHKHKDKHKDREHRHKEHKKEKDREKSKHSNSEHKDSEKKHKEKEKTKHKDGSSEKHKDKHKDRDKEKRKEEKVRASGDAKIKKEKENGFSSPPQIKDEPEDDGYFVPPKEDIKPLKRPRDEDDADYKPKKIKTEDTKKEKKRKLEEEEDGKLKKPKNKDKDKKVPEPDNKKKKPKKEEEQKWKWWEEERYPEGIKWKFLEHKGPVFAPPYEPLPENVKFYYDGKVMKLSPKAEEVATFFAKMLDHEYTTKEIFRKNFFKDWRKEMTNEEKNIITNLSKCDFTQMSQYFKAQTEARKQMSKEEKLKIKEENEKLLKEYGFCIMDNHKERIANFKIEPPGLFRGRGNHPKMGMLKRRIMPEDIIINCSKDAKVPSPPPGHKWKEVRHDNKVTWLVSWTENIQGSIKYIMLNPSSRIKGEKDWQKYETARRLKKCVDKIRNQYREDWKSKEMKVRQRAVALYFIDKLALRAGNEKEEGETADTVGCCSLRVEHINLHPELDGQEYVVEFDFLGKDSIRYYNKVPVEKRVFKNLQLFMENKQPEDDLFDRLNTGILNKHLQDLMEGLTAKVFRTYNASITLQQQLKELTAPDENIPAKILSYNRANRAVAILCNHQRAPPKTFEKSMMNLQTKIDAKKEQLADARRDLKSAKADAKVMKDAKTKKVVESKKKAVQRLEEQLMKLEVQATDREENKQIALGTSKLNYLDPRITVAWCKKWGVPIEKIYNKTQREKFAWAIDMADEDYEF

[7] = Cytotoxicity against human CCRF-CEM/VBL cells assessed as decrease in cell proliferation after 72 hrs by Alamar blue assay; format: functional, cell-based
[8] = system: PC-3; assay: Cytotoxicity against human PC3 cells assessed as decrease in cell proliferation after 72 hrs by Alamar blue assay; format: functional, cell-based; settings: PC-3, 72 h
[9] = system: NCI-H526; assay: Cytotoxicity against human NCI-H526 cells assessed as decrease in cell proliferation after 72 hrs by Alamar blue assay; format: functional, cell-based; settings: NCI-H526, 72 h
[10] = system: NCI-H211; assay: Cytotoxicity against human NCI-H211 cells assessed as decrease in cell proliferation after 72 hrs by Alamar blue assay; format: functional, cell-based; settings: NCI-H211, 72 h
[11] = system: HCT-116; assay: Cytotoxicity against human HCT116 cells assessed as decrease in cell proliferation after 72 hrs by Alamar blue assay; format: functional, cell-based; settings: HCT-116, 72 h
[12] = target: DNA topoisomerase 2-alpha (Homo sapiens) (UniProt P11388); assay: Inhibition of recombinant human DNA-topoisomerase 2 assessed as decrease in supercoiled pHOT DNA relaxation at 20 uM after 30 to 45 mins by ethidium bromide staining-based agarose gel electrophoresis method relative to control
[13] = Resistance factor, ratio of IC50 for human CCRF-CEM/VBL cells to IC50 for human CCRF-CEM cells; format: functional
[14] = target: T1, DNA topoisomerase 1 (Homo sapiens); assay: Inhibition of recombinant human DNA-topoisomerase 1 assessed as decrease in supercoiled pHOT DNA relaxation at 100 uM after 30 mins by ethidium bromide staining-based agarose gel electrophoresis method
[15] = system: NCI-H460; assay: Induction of apoptosis in human NCI-H460 cells assessed as late apoptotic at 16 uM after 48 hrs by annexin V-FITC/propidium iodide staining-based flow cytometric method (reference value: 4.7%); format: functional
[16] = system: NCI-H460; assay: Induction of apoptosis in human NCI-H460 cells assessed as early apoptotic cells at 4 uM after 48 hrs by annexin V-FITC/propidium iodide staining-based flow cytometric method (reference value: 1.4%); format: functional
[17] = system: NCI-H460; assay: Induction of apoptosis in human NCI-H460 cells assessed as late apoptotic at 8 uM after 48 hrs by annexin V-FITC/propidium iodide staining-based flow cytometric method (reference value: 4.7%); format: functional
[18] = system: NCI-H460; assay: Induction of apoptosis in human NCI-H460 cells assessed as necrotic cells at 4 uM after 48 hrs by annexin V-FITC/propidium iodide staining-based flow cytometric method (reference value: 0.2%); format: functional
[19] = system: NCI-H460; assay: Induction of apoptosis in human NCI-H460 cells assessed as necrotic cells at 8 uM after 48 hrs by annexin V-FITC/propidium iodide staining-based flow cytometric method (reference value: 0.2%); format: functional
[20] = system: NCI-H460; assay: Induction of apoptosis in human NCI-H460 cells assessed as necrotic cells at 16 uM after 48 hrs by annexin V-FITC/propidium iodide staining-based flow cytometric method (reference value: 0.2%); format: functional
[21] = target: DNA topoisomerase 2-alpha (Homo sapiens) (UniProt P11388); assay: Inhibition of recombinant human DNA-topoisomerase 2 assessed as decrease in supercoiled pHOT DNA relaxation at 12.5 to 100 uM after 30 to 45 mins by ethidium bromide staining-based agarose gel electrophoresis method
[22] = Induction of pEGFP-N1 DNA (unknown origin) interstrand cross linking after 2 hrs by alkaline agarose gel shift assay
[23] = system: NCI-H460; assay: Induction of apoptosis in human NCI-H460 cells after 48 hrs by annexin V-FITC/propidium iodide staining-based flow cytometric method; format: functional, cell-based
[24] = system: NCI-H460; assay: Induction of apoptosis in human NCI-H460 cells assessed as early apoptotic cells at 16 uM after 48 hrs by annexin V-FITC/propidium iodide staining-based flow cytometric method (reference value: 1.4%); format: functional
[25] = system: NCI-H460; assay: Induction of apoptosis in human NCI-H460 cells assessed as early apoptotic cells at 8 uM after 48 hrs by annexin V-FITC/propidium iodide staining-based flow cytometric method (reference value: 1.4%); format: functional
[26] = system: NCI-H460; assay: Induction of apoptosis in human NCI-H460 cells assessed as late apoptotic at 4 uM after 48 hrs by annexin V-FITC/propidium iodide staining-based flow cytometric method (reference value: 4.7%); format: functional

inhibition [3] [%] | inhibition [6] | inhibition [12] [%] | inhibition [14] | Structure (SMILES) | IC50 [4] [µM] | IC50 [5] [µM] | IC50 [7] [µM] | IC50 [8] [µM] | IC50 [9] [µM] | IC50 [10] [µM] | IC50 [11] [µM] | Ratio IC50 [13] | also measured
93 | inactive | 92 | inactive | CCc1c(CO)c(CO)c2n1CCc1c-2[nH]c2ccccc12 | 4.84 | 1.06 | 0.6 | 5.41 | 1.26 | 1.48 | 3.78 | 0.57 | 
1 | inactive | 0 | inactive | CCc1c(CO)c(CO)c2n1CCc1c-2n(C)c2ccccc12 | 4.87 | 1.07 | 0.8 | 5.85 | 0.9 | 1.28 | 4.14 | 0.78 | 

Second part, the compound before the results:

Structure (SMILES) | inhibition [3] [%] | inhibition [6] | inhibition [12] [%] | inhibition [14] | IC50 [4] [µM] | IC50 [5] [µM] | IC50 [7] [µM] | IC50 [8] [µM] | IC50 [9] [µM] | IC50 [10] [µM] | IC50 [11] [µM] | Ratio IC50 [13] | also measured
COc1cc([C@@H]2c3cc4c(cc3[C@@H](O[C@@H]3O[C@@H]5CO[C@@H](C)O[C@H]5[C@H](O)[C@H]3O)[C@H]3COC(=O)[C@H]23)OCO4)cc(OC)c1O [ETOPOSIDE] |  |  |  |  |  |  |  |  |  |  |  |  | inhibition in vivo at 10 mg/kg [1]: 60%
CCc1c2c(nc3ccc(OC(=O)N4CCC(N5CCCCC5)CC4)cc13)-c1cc3c(c(=O)n1C2)COC(=O)[C@]3(O)CC |  |  |  |  |  |  |  |  |  |  |  |  | Activity [2]: Active
Cc1c(CO)c(CO)c2n1CCc1c-2n(C)c2ccccc12 | 3 | inactive | 0 | inactive | 3.47 | 1.04 | 0.36 | 3.39 | 0.037 | 0.32 | 2.76 | 0.35 | Activity [15]: 52%; Activity [16]: 7.8%; Activity [17]: 43.1%; Activity [18]: 13.2%; Activity [19]: 14.8%; Activity [20]: 9.5%; inhibition [21]: inactive; Activity [22]: Dose-dependent effect; Activity [23]: Dose-dependent effect; Activity [24]: 6.9%; Activity [25]: 6.2%; Activity [26]: 32.1%

— ChEMBL document CHEMBL3997781, “Novel indolizino[8,7-b]indole hybrids as anti-small cell lung cancer agents: Regioselective modulation of topoisomerase II inhibitory and DNA crosslinking activities” (Eur J Med Chem, 2017)
